{
  "source": "patent USRE30560E",
  "about": "“Oxazolidinedione derivatives of Vinca alkaloids” (Eli Lilly and Company, priority 1979, dated 1981)",
  "key": {"[1]": {"test_system": "Gardner lymphosarcoma (GLS)", "experiment": "Percent inhibition of transplanted Gardner lymphosarcoma (GLS) in mice", "format": "in vivo", "conditions": "for inhibitory activity orally / oral activity: oral; for inhibitory activity orally: 6-7 mg./kg. (3\"-methyl) and 3-6 mg./kg. (3\"-(β-chloroethyl)); for oral activity: 2 (VLB) and 2-4.5 (vincristine) mg./kg.", "procedure": "(§1) The following table--Table 1--gives the results of several experiments in which mice bearing transplanted tumors were treated successfully with a compound of this invention. In the table, column 1 gives the name of the compound; column 2, the transplanted tumor; column 3, the dose level or dose level range and the number of days the dosage was administered; column 4, the route of administration, and column 5, the percent inhibition of tumor growth or percent prolongation of survival time, e.g., B16 and P388. (ROS is an abbreviation for Ridgeway osteogenic sarcoma; GLS for Gardner lymphosarcoma; P1534(J) and P388 are leukemias; CA755 is an adenocarcinoma; and B16 is a melamoma)."}, "P1534(J)": {"test_system": "P1534(J)", "experiment": "Percent inhibition, mice bearing transplanted P1534(J) leukemia", "format": "in vivo", "procedure": "as §1"}, "CA755": {"test_system": "CA755", "experiment": "Percent inhibition of transplanted CA755 adenocarcinoma in mice", "format": "in vivo", "conditions": "for inhibitory activity orally / oral activity: oral; for inhibitory activity orally: 6-7 mg./kg. (3\"-methyl) and 3-6 mg./kg. (3\"-(β-chloroethyl)); for oral activity: 2 (VLB) and 2-4.5 (vincristine) mg./kg.", "procedure": "as §1"}, "B16": {"test_system": "B16", "experiment": "Percent prolongation of survival time, mice bearing transplanted B16 melanoma", "format": "in vivo", "procedure": "as §1"}, "[2]": {"test_system": "Ridgeway osteogenic sarcoma (ROS)", "experiment": "Percent inhibition of transplanted Ridgeway osteogenic sarcoma (ROS) in mice", "format": "in vivo", "conditions": "for inhibitory activity orally / oral activity: oral; for inhibitory activity orally: 6-7 mg./kg. (3\"-methyl) and 3-6 mg./kg. (3\"-(β-chloroethyl)); for oral activity: 2 (VLB) and 2-4.5 (vincristine) mg./kg.", "procedure": "as §1"}, "transplanted tumors [3]": {"test_system": "transplanted tumors", "conditions": "C-3 amides; cited from earlier work"}, "transplanted tumors [4]": {"test_system": "transplanted tumors", "experiment": "Activity against transplanted tumors in mice (general statements)", "format": "in vivo", "conditions": "for activity by the oral route: same tumors in experimental animals; for dose level showing comparable tumor inhibition or prolongation of life: parenteral, intraperitoneal route", "procedure": "as §1"}, "[5]": {"experiment": "Toxicity on oral administration in tumor-bearing animals", "format": "in vivo, experimental animals", "conditions": "above 2 (VLB) and 2-4.5 (vincristine) mg./kg."}, "leukemias": {"test_system": "leukemias", "conditions": "humans; cited from earlier work"}, "[6]": {"conditions": "humans; compared with vincristine; cited from earlier work"}},
  "data": [
    {"smiles": "CC[C@]1(O)C[C@@H]2CN(CCc3c([nH]c4ccccc34)[C@@](C(=O)OC)(c3cc4c(cc3OC)N(C=O)[C@H]3[C@]5(OC(=O)N(C)C5=O)[C@H](OC(C)=O)[C@]5(CC)C=CCN6CC[C@]43[C@@H]65)C2)C1", "note": "[Vincristine 3\"-methyl-3-spiro-5\"-oxazolidine-2\",4\"-dione]", "values": [
      {"measurement": "Percent Inhibition", "setting": "[1]; 1.0 mg./kg. × 7 days, IP", "result": 61, "unit": "%"}
    ]},
    {"smiles": "CC[C@]1(O)C[C@@H]2CN(CCc3c([nH]c4ccccc34)[C@@](C(=O)OC)(c3cc4c(cc3OC)N(C)[C@H]3[C@]5(OC(=O)N(C)C5=O)[C@H](OC(C)=O)[C@]5(CC)C=CCN6CC[C@]43[C@@H]65)C2)C1", "note": "[VLB 3\"-methyl-3-spiro-5\"-oxazolidine-2\",4\"-dione]", "values": [
      {"measurement": "Percent Inhibition or Prolongation of Survival Time", "setting": "P1534(J); 3-4 mg./kg. × 8 days, PO", "result": 100, "unit": "%"},
      {"measurement": "Percent Inhibition or Prolongation of Survival Time", "setting": "P1534(J); .5-.6 mg./kg. × 10 days, IP", "result": 100, "unit": "%"},
      {"measurement": "Percent Inhibition", "setting": "CA755; 0.5-1.0 mg./kg. × 10 days, IP", "result": "45-100%"},
      {"measurement": "inhibitory activity orally", "setting": "CA755", "result": 100, "unit": "%"},
      {"measurement": "Percent Prolongation of Survival Time", "setting": "B16; 4.5 mg./kg. × 10 days, IP (so in the source)", "result": "49-91%"},
      {"measurement": "indefinite survivors (survived for 60 days till end of trial)", "setting": "B16; 0.5-0.6 mg./kg. × 10 days, IP", "result": 3},
      {"measurement": "Percent Inhibition", "setting": "[1]; 0.6 mg./kg. × 7 days, IP", "result": 100, "unit": "%"},
      {"measurement": "Percent Inhibition", "setting": "[1]; 1.25 mg./kg. × 9 days, IP", "result": 100, "unit": "%"},
      {"measurement": "Percent Inhibition", "setting": "[1]; 3-4 mg./kg. × 10 days, PO", "result": 100, "unit": "%"},
      {"measurement": "Percent Inhibition", "setting": "[1]; 3-5 mg./kg. × 10 days, PO", "result": "37-56%"},
      {"measurement": "inhibitory activity orally", "setting": "[1]", "result": 100, "unit": "%"},
      {"measurement": "Percent Inhibition", "setting": "[2]; 5-7 mg./kg. × 10 days, PO", "result": "38-59%"},
      {"measurement": "inhibitory activity orally", "setting": "[2]", "result": 100, "unit": "%"}
    ]},
    {"smiles": "CC[C@]1(O)C[C@@H]2CN(CCc3c([nH]c4ccccc34)[C@@](C(=O)OC)(c3cc4c(cc3OC)N(C)[C@H]3[C@@](O)(C(=O)NCCS)[C@H](O)[C@]5(CC)C=CCN6CC[C@]43[C@@H]65)C2)C1", "note": "[C-3 N-(β-mercaptoethyl)carboxamide of 4-desacetyl VLB]", "values": [
      {"measurement": "anti-tumor activity in mice", "setting": "transplanted tumors [3]", "result": "highly effective anti-tumor agent in mice"}
    ]},
    {"smiles": "CC[C@]1(O)C[C@H]2CN(CCc3c([nH]c4ccccc34)[C@@](C(=O)OC)(c3cc4c(cc3OC)N(C=O)[C@H]3[C@@](O)(C(=O)OC)[C@H](OC(C)=O)[C@]5(CC)C=CCN6CC[C@]43[C@@H]65)C2)C1", "note": "[vincristine, leurocristine]", "values": [
      {"measurement": "activity by the oral route", "setting": "transplanted tumors [4]", "result": "do not show this degree of oral activity"},
      {"measurement": "dose level showing comparable tumor inhibition or prolongation of life", "setting": "transplanted tumors [4]", "result": "0.2 to 0.25", "unit": "mg/kg"},
      {"measurement": "oral activity", "setting": "CA755", "result": "only marginally active, if at all"},
      {"measurement": "toxicity at higher levels", "setting": "[5]", "result": "usually are toxic at higher levels"},
      {"measurement": "activity in the treatment of leukemias", "setting": "leukemias", "result": "most active and useful agent in the treatment of leukemias"},
      {"measurement": "oral activity", "setting": "[1]", "result": "only marginally active, if at all"},
      {"measurement": "oral activity", "setting": "[2]", "result": "only marginally active, if at all"}
    ]},
    {"smiles": "CC[C@]1(O)C[C@@H]2CN(CCc3c([nH]c4ccccc34)[C@@](C(=O)OC)(c3cc4c(cc3OC)N(C)[C@H]3[C@]5(OC(=O)N(CCCl)C5=O)[C@H](OC(C)=O)[C@]5(CC)C=CCN6CC[C@]43[C@@H]65)C2)C1", "note": "[VLB 3\"-(β-chloroethyl)-3-spiro-5\"-oxazolidine-2\",4\"-dione]", "values": [
      {"measurement": "Percent Inhibition or Prolongation of Survival Time", "setting": "P1534(J); 3.5 mg./kg. × 8 days, PO", "result": 100, "unit": "%"},
      {"measurement": "Percent Inhibition or Prolongation of Survival Time", "setting": "P1534(J); 0.4-0.6 mg./kg. × 10 days, IP", "result": "61-86%"},
      {"measurement": "Percent Inhibition", "setting": "CA755; 0.75-1.0 mg./kg. × 10 days, IP", "result": 53, "unit": "%"},
      {"measurement": "Percent Inhibition", "setting": "CA755; 3-5 mg./kg. × 9-10 days, PO", "result": "59-92%"},
      {"measurement": "inhibitory activity orally", "setting": "CA755", "result": 100, "unit": "%"},
      {"measurement": "Percent Prolongation of Survival Time", "setting": "B16; 0.4-0.6 mg./kg. × 10 days, IP", "result": "25-178%"},
      {"measurement": "indefinite survivors (survived for 60 days till end of trial)", "setting": "B16; 0.4-0.6 mg./kg. × 10 days, IP", "result": 5},
      {"measurement": "Percent Inhibition", "setting": "[1]; 0.65 mg./kg. × 10 days, IP", "result": 47, "unit": "%"},
      {"measurement": "Percent Inhibition", "setting": "[1]; 0.5-0.6 mg./kg. × 9-10 days, IP", "result": "50-74%"},
      {"measurement": "Percent Inhibition", "setting": "[1]; 3-4 mg./kg. × 9 days, PO", "result": "92-100%"},
      {"measurement": "inhibitory activity orally", "setting": "[1]", "result": 100, "unit": "%"},
      {"measurement": "inhibitory activity orally", "setting": "[2]", "result": 100, "unit": "%"}
    ]},
    {"smiles": "CC[C@]1(O)C[C@@H]2CN(CCc3c([nH]c4ccccc34)[C@@](C(=O)OC)(c3cc4c(cc3OC)N(C)[C@H]3[C@]5(OC(=O)N(C)C5=O)[C@H](OC(=O)NC)[C@]5(CC)C=CCN6CC[C@]43[C@@H]65)C2)C1", "note": "[4-desacetyl VLB 3\"-methyl-3-spiro-5\"-oxazolidine-2\",4\"-dione-4-(N-methyl)carbamate]", "values": [
      {"measurement": "Percent Inhibition", "setting": "[1]; 0.1-2.5 mg./kg. × 7-9 days, IP", "result": "40-100%"}
    ]},
    {"smiles": "CC[C@]1(O)C[C@@H]2CN(CCc3c([nH]c4ccccc34)[C@@](C(=O)OC)(c3cc4c(cc3OC)N(C)[C@H]3[C@@](O)(C(N)=O)[C@H](O)[C@]5(CC)C=CCN6CC[C@]43[C@@H]65)C2)C1", "note": "[vindesine, 4-desacetyl VLB C-3 carboxamide]", "values": [
      {"measurement": "neurotoxicity", "setting": "[6]", "result": "less neurotoxicity than does vincristine"},
      {"measurement": "activity in the treatment of leukemias", "setting": "leukemias", "result": "active in certain leukemias"}
    ]},
    {"smiles": "CC[C@]1(O)C[C@@H]2CN(CCc3c([nH]c4ccccc34)[C@@](C(=O)OC)(c3cc4c(cc3OC)N(C)[C@H]3[C@]5(OC(=O)N(C)C5=O)[C@H](O)[C@]5(CC)C=CCN6CC[C@]43[C@@H]65)C2)C1", "note": "[4-desacetyl VLB 3\"-methyl-3-spiro-5\"-oxazolidone-2\",4\"-dione]", "values": [
      {"measurement": "Percent Inhibition", "setting": "[1]; 2.5 mg./kg. × 7 days, IP", "result": 27, "unit": "%"}
    ]},
    {"smiles": "CC[C@]1(O)C[C@@H]2CN(CCc3c([nH]c4ccccc34)[C@@](C(=O)OC)(c3cc4c(cc3OC)N(C)[C@H]3[C@@](O)(C(=O)OC)[C@H](OC(C)=O)[C@]5(CC)C=CCN6CC[C@]43[C@@H]65)C2)C1", "note": "[VLB, vincaleukoblastine, reference compound]", "values": [
      {"measurement": "activity by the oral route", "setting": "transplanted tumors [4]", "result": "do not show this degree of oral activity"},
      {"measurement": "dose level showing comparable tumor inhibition or prolongation of life", "setting": "transplanted tumors [4]", "result": "0.4 to 0.45", "unit": "mg/kg"},
      {"measurement": "oral activity", "setting": "CA755", "result": "only marginally active, if at all"},
      {"measurement": "toxicity at higher levels", "setting": "[5]", "result": "usually are toxic at higher levels"},
      {"measurement": "oral activity", "setting": "[1]", "result": "only marginally active, if at all"},
      {"measurement": "oral activity", "setting": "[2]", "result": "only marginally active, if at all"}
    ]},
    {"smiles": "C=CCN1C(=O)O[C@]2(C1=O)[C@H](OC(C)=O)[C@]1(CC)C=CCN3CC[C@@]4(c5cc([C@@]6(C(=O)OC)C[C@H]7CN(CCc8c6[nH]c6ccccc86)C[C@](O)(CC)C7)c(OC)cc5N(C)[C@@H]24)[C@@H]31", "note": "[VLB 3\"-allyl-3-spiro-5\"-oxazolidine-2\",4\"-dione]", "values": [
      {"measurement": "Percent Inhibition", "setting": "[1]; 2.5 mg./kg. × 7 days, IP", "result": 35, "unit": "%"}
    ]}
  ]
}
